Measured values: patent publication US20170226503A1, “Methods for Sequential Screening with Co-Culture Based Detection of Metagenomic Elements Conferring Heterologous Metabolite Secretion” (MetaMixis Biologics, Inc., priority 2014, published 2017)

Tested on: MIE p10c20
Assay: Validation of MIE p10c20 from retrofitted metagenomic library (fluorescence)
Assay type: cell-based
Conditions: 1 mM
Source text: A metagenomic DNA library was “retroffited” as described herein and shown in FIG. 15 to identify a metabolite induced element (MIE). In FIG. 16 fluoresence plots are shown for a retroffited metagenomic library assayed for fluorescence emitted by the fluorescent marker. […] Induction was by a pool of pCoumaric acid, Vanillic acid and Vanillin. The circled data point that represents a fosmid clone harboring a candidate MIE (p10c20) which was selected for further investigation.

For O=C(O)/C=C/c1ccc(O)cc1 [pCoumaric acid], the “responsiveness of MIE p10c20” value was “most responsive”.
